We go through four compounds from US20220184080A1 (Aerovate Therapeutics, Inc., priority 2019, published 2022).

The data set in a line: thermal stability of imatinib salt forms. It counts as physicochemical. The following applies: method not described.
For `O=S(=O)(O)CCO` [isethionate], the thermal stability entry is “suitable thermal stability”.
As for malate, the thermal stability result is on record as “suitable thermal stability”.
For malonate the value was “suitable thermal stability”; for tartrate, “suitable thermal stability”.
